Assays:
[1] = tested on: Capan-1 xenograft tumor; test: Suppression of tumor growth by doxorubicin or liposomal doxorubicin after pentoxifylline pretreatment; format: in vivo, BALB/c nu/nu mice; conditions: doxorubicin 8 mg/kg i.v., with or without pentoxifylline pretreatment 100 mg/kg/d for two weeks; normalized to volume at treatment start; P<0.05
Text: (§1) Female BALB/c nu/nu mice (5 to 6 weeks old) were purchased from Orient Bio Inc. (Seongnam City, Gyeonggi-do, Korea), and were raised in a germ-free animal breeding facility at the Catholic University of Korea, Catholic Medical Center (Seoul, Korea). The animals were raised in a standard state, and supplied with food and water ad libitum. The animals were taken care of in accordance with the guidelines of the Institutional Animal Care and Use Committee (IACUC) of School of Medicine of the Catholic University of Korea (Approval Number; CUMC-2010-0141-01). For induction of tumor, Capan-1 cells were harvested after the trypsin treatment, 5×10^6 living cells were subcutaneously injected into the right flanks of the mice. After tumor was induced, the mice were sacrificed, tumor samples were obtained, and experiments were performed according to each Example to be described below.

[2] = tested on: Capan-1 xenograft tumor; test: Suppression of tumor growth by combinatory treatment of pentoxifylline and gemcitabine; format: in vivo, BALB/c nu/nu mice; conditions: pentoxifylline alone 100 mg/kg/d i.p., 28 days
Text: as §1
The tumor size (mm^3) was calculated by using the equation: V=(a×b^2)/2 (a is the largest diameter of tumor, and b is the smallest diameter of tumor). The relative tumor size was normalized with respect to the volume when a drug treatment of Capan-1 xenograft tumor was initiated. At least three mice per group were used, and the results were presented as an average standard error (SE). The statistical significance was determined by using a 2-sample t-test inferred from the Microsoft Excel 2007. […]

[3] = tested on: CD31; test: Blood vessel density by CD31 immunostaining in tumor sections; format: in vivo, BALB/c nu/nu mice; conditions: with versus without pentoxifylline
Text: as §1

[4] = tested on: collagen type I; test: Collagen type I content in tumor sections (immunofluorescence); format: in vivo, mice
Text: as §1

[5] = tested on: mouse COLIA1 (collagen type I, alpha 1); test: Collagen type I mRNA expression in tumor (quantitative real-time RT-PCR); format: in vivo; conditions: pentoxifylline pretreatment for two weeks; P<0.02
Text: as §1, with “After tumor was induced, the mice were sacrificed, tumor samples were obtained, and experiments were performed according to each Example to be described below.” left out
(§2) In order to confirm the mRNA expression level of collagen type I, RT-PCR was performed. For the quantitative real-time RT-PCR analysis, total RNAs were isolated from tumor homogenates using the Trizol method and quantified by Nanodrop spectrophotometer (ND-1000). After 1 μg of total RNAs was reverse transcribed from the tissue with AccuPower CycleScript RT PreMix (Bioneer), a quantitative real-time polymerase chain reaction was performed using the LightCycler 480 Real-Time PCR System II (Roche) with SYBR Green Master mix (Roche) according to the manufacturer's recommendation. […]

[6] = tested on: α-SMA; test: Immunohistochemical staining of α-SMA in tumor sections; format: in vivo, mice; conditions: pentoxifylline for two weeks; p<0.001
Text: as §1, with “below. […] Immunohistochemical staining for α-SMA, TGF-β1, and CTGF was performed using Dako Envision Detection System ([…], DAKO). Paraffin-embedded, formalin fixed samples were cut into sections having a thickness of 3 μm, deparaffinized and rehydrated. For antigen retrieval, a pressure cooker of a microwave method was used as a target retrieval solution ([…], DAKO) for 5 minutes (pH 9.0), and cooled at room temperature for 20 minutes. […]” for “below.”

[7] = tested on: CTGF; test: Immunohistochemical staining of CTGF in tumor sections; format: in vivo, mice; conditions: pentoxifylline for two weeks; p<0.05
Text: as §1, with “below. […] Immunohistochemical staining for α-SMA, TGF-β1, and CTGF was performed using Dako Envision Detection System ([…], DAKO). Paraffin-embedded, formalin fixed samples were cut into sections having a thickness of 3 μm, deparaffinized and rehydrated. For antigen retrieval, a pressure cooker of a microwave method was used as a target retrieval solution ([…], DAKO) for 5 minutes (pH 9.0), and cooled at room temperature for 20 minutes. […]” for “below.”

[8] = tested on: TGF-β1; test: Total and active TGF-β1 in tumor homogenate (ELISA); format: in vivo, mice; conditions: ELISA of tumor homogenate
Text: as §1
Frozen tumors were cut into small pieces, and homogenized using Precellys 24 homogenizer (Bertin Technologies) in Tissue Extraction Reagent I (Invitrogen) containing protease inhibitor cocktail (Complete Mini, Roche). […] Total protein concentrations were determined by BCA protein assay kit (Pierce). Total and active TGF-β1 concentrations were determined using TGF-β1 ELISA kit (eBioscience) according to the manufacturer's protocol.

[9] = tested on: TGF-β1; test: Immunohistochemical staining of TGF-β1 in tumor sections; format: in vivo, mice
Text: as §1, with “below. […] Immunohistochemical staining for α-SMA, TGF-β1, and CTGF was performed using Dako Envision Detection System ([…], DAKO). Paraffin-embedded, formalin fixed samples were cut into sections having a thickness of 3 μm, deparaffinized and rehydrated. For antigen retrieval, a pressure cooker of a microwave method was used as a target retrieval solution ([…], DAKO) for 5 minutes (pH 9.0), and cooled at room temperature for 20 minutes. […]” for “below.”

[10] = tested on: mouse TGF-β1; test: TGF-β1 mRNA expression in tumor (quantitative real-time RT-PCR); format: in vivo; conditions: pentoxifylline versus control; direction not stated at b84
Text: as §1, with “After tumor was induced, the mice were sacrificed, tumor samples were obtained, and experiments were performed according to each Example to be described below.” left out
as §2, with “For” for “In order to confirm the mRNA expression level of collagen type I, RT-PCR was performed. For”
All expression data were normalized using the GAPDH expression. The relative gene expression was quantified using the ΔΔCt method (2-ΔΔCt).

SMILES | relative tumor size at day 23 [1] | anti-tumor effects compared to the control group of saline treatment [2] | blood vessel density exhibited by CD31 immunostaining [3] | collagen content at high dose (100 mg/kg) versus low dose (50 mg/kg) ([4]; i.p. for two weeks, P<0.05) | collagen type I contents in central and marginal regions of the tumor sections ([4]; pentoxifylline i.p. for two weeks versus saline) | reduction of mRNA expression of collagen I compared to the control group [5] | reduction of immunostaining of α-SMA in the tumor sections [6] | reduction of immunostaining of CTGF in the tumor sections [7] | effect on active TGF-β1 level in the tumor tissue [8] | effect on total TGF-β1 level in the tumor tissue [8] | effect on TGF-β1 immunohistochemical staining in the tumor tissue [9] | TGF-β1 mRNA expression [10]
COc1cccc2c1C(=O)c1c(O)c3c(c(O)c1C2=O)C[C@@](O)(C(=O)CO)C[C@@H]3O[C@H]1C[C@H](N)[C@H](O)[C@H](C)O1 [doxorubicin] | 1.52 | – | – | – | – | – | – | – | – | – | – | –
CC(=O)CCCCn1c(=O)c2c(ncn2C)n(C)c1=O [pentoxifylline, 1-(5-oxohexyl)-3,7-dimethylxanthine] | – | anti-tumor effects did not appear | no difference between groups | slightly lower | reduced | 72% | 66% | 25% | no effects | no effects | no effects | big difference

From US20150374702A1 (CATHOLIC UNIVERSITY INDUSTRY ACADEMIC COOPERATION FOUNDATION, priority 2013, published 2015)
